According to BindingDB's records for patent US8962648 (Oncotherapy Science, 2015):
pIC50: −log10 of the molar value. “And” between values parts separate entries of the source, which are not always exact repeats. Equal values may be shown once.

Target: T1, Lymphokine-activated killer T-cell-originated protein kinase (Homo sapiens, UniProt Q96KB5)
T1 sequence (Q96KB5 whole entry): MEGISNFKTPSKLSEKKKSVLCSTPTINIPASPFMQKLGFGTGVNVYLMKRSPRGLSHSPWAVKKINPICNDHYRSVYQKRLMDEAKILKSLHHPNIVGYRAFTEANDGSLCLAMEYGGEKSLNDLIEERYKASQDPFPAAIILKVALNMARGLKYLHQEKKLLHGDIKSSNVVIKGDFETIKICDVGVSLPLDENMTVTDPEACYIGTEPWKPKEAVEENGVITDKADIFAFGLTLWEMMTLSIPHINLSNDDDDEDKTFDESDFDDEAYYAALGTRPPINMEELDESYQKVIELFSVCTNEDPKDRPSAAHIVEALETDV
Assay: Kinase Assay
Conditions: pH 7.4; 25 °C
Protocol: PBK activity was determined in the presence or absence of compounds using fluorescein isothiocyanate-labeled (FITC-labeled) histone H3 peptide as a substrate. […] The serially diluted compounds, 0.8 ng/micro-L PBK (Carna Biosciences) and 100 nM FITC-labeled histone H3 peptide were reacted in a reaction buffer (20 mM HEPES, 0.01% Tween-20, 0.3 mM MgCl2, 2 mM dithiothreitol, 50 micro-M ATP, pH 7.4) at room temperature for 1 hour. The reaction was stopped by the addition of three fold assay volume of progressive binding solution. Following 0.5 hour incubation at room temperature.

Nc1ccc(-c2c(O)ccc3[nH]c(=O)c4sccc4c23)cc1O [US8962648, 217]
pIC50: 8.64

CNCCc1ccc(-c2c(O)cc(Cl)c3[nH]c(=O)c4sccc4c23)cc1 [US8962648, 1165]
pIC50: 7.24

CNCCc1ccc(-c2c(O)cc(Br)c3[nH]c(=O)c4sccc4c23)cc1F [US8962648, 1245]
pIC50: 7.35

O=c1[nH]c2ccc(O)c(C3=CCNCC3)c2c2ccsc12 [US8962648, 84]
pIC50: 9.11

CN(C)CCc1ccc(-c2c(O)ccc3[nH]c(=O)c4sccc4c23)cc1F [US8962648, 327]
pIC50: 8.72

CC(NS(C)(=O)=O)c1ccc(-c2c(O)ccc3[nH]c(=O)c4sccc4c23)cc1 (centres undefined) [US8962648, 347]
pIC50: 8.43 and 8.70

CCC(CN)c1ccc(-c2c(O)cc(Cl)c3[nH]c(=O)c4sccc4c23)cc1 (centres undefined) [US8962648, 1312]
pIC50: 7.72

C[C@@H](N)c1ccc(-c2c(O)ccc3[nH]c(=O)c4sccc4c23)cc1 [US8962648, 275]
pIC50: 9.27

Cc1cc(O)c(-c2ccc(C3(CN)CCC3)cc2)c2c1[nH]c(=O)c1sccc12 [US8962648, 1290]
pIC50: 8.00

CC(C)(N)c1ccc(-c2c(O)cc(Cl)c3[nH]c(=O)c4sccc4c23)cc1 [US8962648, 334]
pIC50: 8.00

C[C@@H](c1ccc(-c2c(O)ccc3[nH]c(=O)c4sccc4c23)cc1)N(C)C [US8962648, 335]
pIC50: 8.54

CC(c1ccc(-c2cccc3[nH]c(=O)c4sccc4c23)cc1)N(C)C (centres undefined) [US8962648, 346]
pIC50: 8.04

Cc1cc(O)c(-c2ccc(C(C)(C)CN)c(F)c2)c2c1[nH]c(=O)c1sccc12 [US8962648, 1278]
pIC50: 7.66

CNCc1ccc(-c2c(O)ccc3[nH]c(=O)c4sccc4c23)cc1 [US8962648, 187]
pIC50: 9.05

CCNCc1ccc(-c2c(OC)ccc3[nH]c(=O)c4sccc4c23)cc1 [US8962648, 269]
pIC50: 8.22

CC[C@H](NC)c1ccc(-c2c(O)ccc3[nH]c(=O)c4sccc4c23)cc1 [US8962648, 1148]
pIC50: 8.89

Cc1cc(O)c(-c2ccc(C3(CN)CC3)cc2)c2c1[nH]c(=O)c1sccc12 [US8962648, 1254]
pIC50: 8.02

COc1cc(C)c2[nH]c(=O)c3sc(Cl)cc3c2c1-c1ccc([C@@H](C)CN)cc1 [US8962648, 1354]
pIC50: 7.96

CC(C)(CN)c1ccc(-c2c(O)cc(Br)c3[nH]c(=O)c4sccc4c23)cc1 [US8962648, 1247]
pIC50: 7.14

CCC(CN)c1ccc(-c2c(O)cc(C)c3[nH]c(=O)c4sccc4c23)cc1 (centres undefined) [US8962648, 1291]
pIC50: 7.82

O=c1[nH]c2ccc(O)c(-c3ccc(S(=O)(=O)NCCBr)cc3)c2c2c1CCC2 [US8962648, 1094]
pIC50: 8.00

CS(=O)(=O)NCc1ccc(-c2c(O)ccc3[nH]c(=O)c4sccc4c23)cc1 [US8962648, 212]
pIC50: 8.26

CC(C)(N)c1ccc(-c2c(O)ccc3[nH]c(=O)c4sccc4c23)cc1 [US8962648, 319]
pIC50: 9.37

NCC1CCN(Cc2ccc(-c3c(O)ccc4[nH]c(=O)c5sccc5c34)cc2F)CC1 [US8962648, 235]
pIC50: 9.24

COc1cc(Br)c2[nH]c(=O)c3sccc3c2c1-c1ccc(C2(CN)CC2)cc1 [US8962648, 1391]
pIC50: 7.15

CC[C@@H](N)c1ccc(-c2c(O)cc(C)c3[nH]c(=O)c4sccc4c23)cc1 [US8962648, 1157]
pIC50: 7.74

CC[C@@H](N)c1ccc(-c2c(O)ccc3[nH]c(=O)c4sccc4c23)cc1 [US8962648, 1131]
pIC50: 8.89

CCC(N)c1ccc(-c2c(O)cc(Cl)c3[nH]c(=O)c4sccc4c23)cc1 (centres undefined) [US8962648, 1088]
pIC50: 7.80

N#CC1(c2ccc(-c3c(O)ccc4[nH]c(=O)c5sccc5c34)cc2)CC1 [US8962648, 361]
pIC50: 7.49

CN(C)CCc1ccc(-c2c(O)ccc3[nH]c(=O)c4sccc4c23)cc1 [US8962648, 93]
pIC50: 8.27

NCCc1ccc(-c2c(O)ccc3[nH]c(=O)c4sccc4c23)cc1F [US8962648, 276]
pIC50: 9.30

Cc1cc(O)c(-c2ccc(C3(CN(C)C)CCC3)cc2)c2c1[nH]c(=O)c1sccc12 [US8962648, 1372]
pIC50: 7.38

COc1ccc2[nH]c(=O)c3sccc3c2c1/C=C/CN1CCC(N)CC1 [US8962648, 152]
pIC50: 7.51

Cc1cc(O)c(-c2ccc(C(C)CS(N)(=O)=O)cc2)c2c1[nH]c(=O)c1sccc12 (centres undefined) [US8962648, 1419]
pIC50: 7.09

CN[C@@H](C)c1ccc(-c2c(O)cc(Cl)c3[nH]c(=O)c4sccc4c23)cc1 [US8962648, 1087]
pIC50: 7.72

CCC(c1ccc(-c2c(O)ccc3[nH]c(=O)c4sccc4c23)cc1)N(C)C (centres undefined) [US8962648, 339]
pIC50: 8.72

C[C@@H](NS(C)(=O)=O)c1ccc(-c2c(O)ccc3[nH]c(=O)c4sccc4c23)cc1 [US8962648, 301]
pIC50: 8.49

COc1ccc2[nH]c(=O)c3sccc3c2c1-c1ccc(C(C)CN)cc1 (centres undefined) [US8962648, 373]
pIC50: 8.49

CN(C)C1CCCN(CCCc2c(O)ccc3[nH]c(=O)c4sccc4c23)C1 (centres undefined) [US8962648, 298]
pIC50: 7.08

COc1cc(C)c2[nH]c(=O)c3sccc3c2c1-c1ccc(C2(CN)CCC2)cc1 [US8962648, 1297]
pIC50: 7.46

CNCc1ccc(-c2c(OC)ccc3[nH]c(=O)c4sccc4c23)cc1 [US8962648, 188]
pIC50: 8.11

NCC1(c2ccc(-c3c(O)ccc4[nH]c(=O)c5sccc5c34)cc2)CC1 [US8962648, 348]
pIC50: 8.72

CC(CN)c1ccc(-c2c(O)ccc3[nH]c(=O)c4sccc4c23)cc1F (centres undefined) [US8962648, 1174]
pIC50: 8.82

CC(N)c1ccc(-c2c(O)cc(Br)c3[nH]c(=O)c4sccc4c23)cc1 (centres undefined) [US8962648, 1032]
pIC50: 7.33

NCCc1cc(Br)c(-c2c(O)ccc3[nH]c(=O)c4sccc4c23)cc1O [US8962648, 1224]
pIC50: 8.19

COc1ccc2[nH]c(=O)c3sccc3c2c1-c1ccc(CN(C)C)cc1 [US8962648, 164]
pIC50: 7.96

CC[C@@H](c1ccc(-c2c(O)ccc3[nH]c(=O)c4sccc4c23)cc1)N(C)C [US8962648, 1128]
pIC50: 8.66

CC(c1ccc(-c2c(O)ccc3[nH]c(=O)c4sccc4c23)cc1)N1CCCC1 (centres undefined) [US8962648, 194]
pIC50: 8.55

CN[C@H](C)c1ccc(-c2c(O)cc(C)c3[nH]c(=O)c4sccc4c23)cc1 [US8962648, 1262]
pIC50: 7.92

CCN(CC)C(C)c1ccc(-c2c(O)ccc3[nH]c(=O)c4sccc4c23)cc1 (centres undefined) [US8962648, 196]
pIC50: 8.35

CNCCc1ccc(-c2c(O)cc(C)c3[nH]c(=O)c4sccc4c23)cc1F [US8962648, 1258]
pIC50: 7.60

CCC(CC)(CN)c1ccc(-c2c(O)ccc3[nH]c(=O)c4sccc4c23)cc1 [US8962648, 1209]
pIC50: 8.74

COc1cc(Cl)c2[nH]c(=O)c3sccc3c2c1-c1ccc(CCN)c(F)c1 [US8962648, 1218]
pIC50: 7.06

COc1cc(F)c2[nH]c(=O)c3sccc3c2c1-c1ccc(CN)cc1 [US8962648, 257]
pIC50: 7.59

NCc1ccc(-c2c(O)cc(Cl)c3[nH]c(=O)c4sccc4c23)cc1 [US8962648, 329]
pIC50: 7.80

CN[C@H](C)c1ccc(-c2c(O)cc(Br)c3[nH]c(=O)c4sccc4c23)cc1 [US8962648, 1135]
pIC50: 7.52

CCC(N)c1ccc(-c2c(OC)ccc3[nH]c(=O)c4sccc4c23)cc1 (centres undefined) [US8962648, 337]
pIC50: 8.28

Cc1cc(O)c(-c2ccc(CCN)c(Cl)c2)c2c1[nH]c(=O)c1sccc12 [US8962648, 1264]
pIC50: 8.52

CN[C@@H](C)c1ccc(-c2c(O)ccc3[nH]c(=O)c4sccc4c23)cc1 [US8962648, 1082]
pIC50: 8.96

CCN(CC)Cc1ccc(-c2c(O)ccc3[nH]c(=O)c4sccc4c23)cc1 [US8962648, 184]
pIC50: 8.11

COc1cc(C)c2[nH]c(=O)c3sc(F)cc3c2c1-c1ccc([C@@H](C)CN)cc1 [US8962648, 1375]
pIC50: 7.66

NCc1ccc(-c2c(O)ccc3[nH]c(=O)c4sccc4c23)cc1 [US8962648, 73]
pIC50: 9.20 and 9.42

N#CCc1ccc(-c2c(O)ccc3[nH]c(=O)c4sccc4c23)cc1F [US8962648, 261]
pIC50: 7.82

C[C@H](c1ccc(-c2c(O)ccc3[nH]c(=O)c4sccc4c23)cc1)N(C)C [US8962648, 272]
pIC50: 9.06

C[C@H](CN)c1ccc(-c2c(O)ccc3[nH]c(=O)c4sccc4c23)cc1 [US8962648, 1163]
pIC50: 8.89

CCN[C@H](CC)c1ccc(-c2c(O)ccc3[nH]c(=O)c4sccc4c23)cc1 [US8962648, 1127]
pIC50: 8.85

CC(C)OC(=O)Oc1ccc2[nH]c(=O)c3sccc3c2c1-c1ccc(C(C)N)cc1 (centres undefined) [US8962648, 1077]
pIC50: 7.12

O=c1[nH]c2ccc(O)c(-c3ccc4cn[nH]c4c3)c2c2ccsc12 [US8962648, 61]
pIC50: 8.46

COc1ccc2[nH]c(=O)c3sccc3c2c1-c1ccc(S(=O)(=O)NCCF)cc1 [US8962648, 333]
pIC50: 7.51

CCN(CC)C(C)c1ccc(-c2c(O)ccc3[nH]c(=O)c4sccc4c23)cc1F (centres undefined) [US8962648, 356]
pIC50: 8.44

CCC(CN)c1ccc(-c2c(O)ccc3[nH]c(=O)c4sccc4c23)cc1 (centres undefined) [US8962648, 1309]
pIC50: 9.13

COc1cc(C)c2[nH]c(=O)c3sccc3c2c1-c1ccc(CCN)c(Cl)c1 [US8962648, 1263]
pIC50: 7.48

CC(NC1CCCC1)c1ccc(-c2c(O)ccc3[nH]c(=O)c4sccc4c23)cc1 (centres undefined) [US8962648, 314]
pIC50: 8.55

CC(N)c1ccc(-c2c(O)ccc3[nH]c(=O)c4sccc4c23)cc1F (centres undefined) [US8962648, 359]
pIC50: 9.04
